pIC50: −log10 of the molar value.

The results in this text go back to ChEMBL document CHEMBL1132443, “Antimalarial, antiproliferative, and antitumor activities of artemisinin-derived, chemically robust, trioxane dimers” (J Med Chem, 1999).

For the assay, the system named is Plasmodium falciparum. In words: In vitro antimalarial activity against chloroquine-sensitive Plasmodium falciparum NF54. The assay is classed as functional, organism-based.

One may read the pIC50 as the IC50 on a negative log10 scale, so that one unit is a factor of ten. `C[C@H]1[C@@H](C#Cc2cccc(C#C[C@H]3O[C@@H]4O[C@]5(C)CC[C@H]6[C@H](C)CC[C@@H]([C@H]3C)[C@@]46OO5)c2)O[C@@H]2O[C@]3(C)CC[C@H]4[C@H](C)CC[C@@H]1[C@@]24OO3`: the pIC50 is 7.44.

Consider `C[C@H]1[C@@H](CC(=O)c2ccc(C(=O)C[C@H]3O[C@@H]4O[C@]5(C)CC[C@H]6[C@H](C)CC[C@@H]([C@H]3C)[C@@]46OO5)cc2)O[C@@H]2O[C@]3(C)CC[C@H]4[C@H](C)CC[C@@H]1[C@@]24OO3`, for which the pIC50 is 8.72.

The molecule `C[C@H]1[C@@H](CC(=O)c2cccc(C(=O)C[C@H]3O[C@@H]4C[C@]5(C)CC[C@H]6[C@H](C)CC[C@@H]([C@H]3C)[C@@]46OO5)c2)O[C@@H]2C[C@]3(C)CC[C@H]4[C@H](C)CC[C@@H]1[C@@]24OO3` gave a pIC50 of 8.72.

In turn, `C[C@H]1[C@H](c2ccc([C@@H]3O[C@@H]4O[C@]5(C)CC[C@H]6[C@H](C)CC[C@@H]([C@H]3C)[C@@]46OO5)o2)O[C@@H]2O[C@]3(C)CC[C@H]4[C@H](C)CC[C@@H]1[C@@]24OO3` gave a negative-log IC50 (pIC50) of 8.49.

In turn, `C[C@H]1[C@@H](C#Cc2ccc(C#C[C@H]3O[C@@H]4O[C@]5(C)CC[C@H]6[C@H](C)CC[C@@H]([C@H]3C)[C@@]46OO5)cc2)O[C@@H]2O[C@]3(C)CC[C@H]4[C@H](C)CC[C@@H]1[C@@]24OO3` gave a pIC50 of 7.52.

As for `COc1cc(OC)c([C@@H]2O[C@@H]3O[C@]4(C)CC[C@H]5[C@H](C)CC[C@@H]([C@H]2C)[C@@]35OO4)cc1[C@@H]1O[C@@H]2O[C@]3(C)CC[C@H]4[C@H](C)CC[C@@H]([C@H]1C)[C@@]24OO3`, the pIC50 was 8.89.

For the molecule `C[C@@H]1CC[C@H]2[C@@H](C)C(=O)O[C@@H]3O[C@@]4(C)CC[C@@H]1[C@]32OO4` [ARTEMISININ], the pIC50 was 8.01.
